Experimental data taken from US4236012A, “5-Phenethyl-2-oxazolidone derivatives and a process for producing the same” (Nippon Chemiphar Company, Limited, priority 1978, dated 1980).

Columns and labels:
Type in all cases: in vivo, dd Male mice
mice [1] = experiment: Analgetic Effect on Acetic Acid-Induced Writhing Method; conditions: Mus musculus, oral, 30 minutes before intraperitoneal 0.6% acetic acid, writhing within 20 minutes, Litchfield Wilcoxon method
Experimental: (2) Analgetic Effect on Acetic Acid-Induced Writhing Method:
dd Male mice weighing 18 to 22 g, each group consisting of ten animals were given an intraperitoneal injection of 0.6% acetic acid in a dosage of 0.1 ml/10 g per body weight. The number of writhing syndromes occurring within 20 minutes after the injection was observed. Thereafter, the mice were orally given the test compounds suspended in a 0.2% carboxymethylcellulose solution 30 minutes before the injection of acetic acid. The inhibitory percentage was estimated in comparison with a control in which only a 0.2% carboxymethylcellulose solution was given, and the ED50 values were calculated by the Litchfield Wilcoxon method.

mice [2] = experiment: Muscular Relaxing Effect: Traction Test; conditions: Mus musculus, oral, hind legs on wire within 5 seconds, maximum response over 15-180 minutes, Litchfield Wilcoxon method, read-out: ED50 Values, T.T (Traction Test)
Experimental: (§1) (1) Muscular Relaxing Effect:
(§2) dd Male mice weighing 18 to 22 g, one group consisting of ten animals were orally given the compounds (I) to (III) each suspended in a 0.2% carboxymethylcellulose solution in a dosage of 0.25 ml/10 g per body weight. Mephenesin and 5-(o-chlorobenzyl)-2-oxazoline were used as active placebos. The experiment was carried out according to the methods (a) to (c) as described below, and the ED50 values were calculated by the Litchfield Wilcoxon method, based on the maximum response in each dosage which was measured at intervals of 15, 30, 45, 60, 90, 120, 150 and 180 minutes after the administration of each of the test compounds.

mice [3] = experiment: Muscular Relaxing Effect: Inclined Plane Test; conditions: Mus musculus, oral, veneer inclined at 30 degrees and wire network at 60 degrees, maximum response over 15-180 minutes, Litchfield Wilcoxon method, read-out: ED50 Values, I.P (Inclined Plane Test)
Experimental: as §1, §2
Mice were placed on veneer inclined at an angle of 30 degrees and on a wire network inclined at an angle of 60 degrees of which one mesh was 5 mm square, and the mice sliding down were considered as positive in comparison with their normal behavior.

mice [4] = experiment: Muscular Relaxing Effect: Rotarod Method; conditions: Mus musculus, oral, falling within 3 minutes from rod of 3 cm diameter at 10 rpm, maximum response over 15-180 minutes, Litchfield Wilcoxon method, read-out: ED50 Values, R.R (Rotarod Method)
Experimental: as §1, §2
Mice were placed on Rotar Load (made by Natsume Seisakusho Co., Ltd.) having a diameter of 3 cm and rotating at a speed of 10 rpm, and their falling (occurring within 3 minutes) was observed.

| SMILES | ED50 (mice [1]) [mg/kg] | ED50 (mice [2]) [mg/kg] | ED50 (mice [3]) [mg/kg] | ED50 (mice [4]) [mg/kg] |
| --- | --- | --- | --- | --- |
| Cc1c(N(C)C)c(=O)n(-c2ccccc2)n1C [Aminopyrine] | 64 |  |  |  |
| O=C1NCC(Cc2ccccc2Cl)O1 (centres unmarked) [Compound A, 5-(o-Chlorobenzyl)-2-oxazolidone, reference compound] | 40 | 390 | 330 | 210 |
| O=C1NCC(CCc2ccccc2)O1 (centres unmarked) [Compound I, 5-Phenethyl-2-oxazolidone] |  | 217 | 261 | 196 |
| O=C1NCC(CCc2ccccc2F)O1 (centres unmarked) [Compound II, 5-(o-Fluorophenethyl)-2-oxazolidone] |  | 230 | 297 | 194 |
| O=C1NCC(CCc2ccccc2Cl)O1 (centres unmarked) [Compound III, 5-(o-Chlorophenethyl)-2-oxazolidone] | 36 | 225 | 268 | 182 |
| Cc1ccccc1OCC(O)CO (centres unmarked) [Mephenesin, reference compound] |  | 460 | 470 |  |
